The target of the experiment is T1, hDHFR (dihydrofolate reductase) (Homo sapiens, UniProt P00374).
T1 construct: gene DHFR; recombinant hDHFR (8456-DR-100; R&D Systems)
T1 sequence (P00374 1-187): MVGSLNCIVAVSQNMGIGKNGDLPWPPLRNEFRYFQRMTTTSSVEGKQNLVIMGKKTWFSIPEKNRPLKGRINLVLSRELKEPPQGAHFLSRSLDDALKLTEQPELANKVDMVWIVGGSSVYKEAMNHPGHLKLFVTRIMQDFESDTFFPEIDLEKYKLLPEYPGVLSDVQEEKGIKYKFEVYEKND
Briefly: ITC at […]°C without NADPH (also enzyme inhibition, CETSA, TPP). In kind it is binding. To be noted: read-out: Average Kd (±s.d.).

One may read the Kd as the concentration at which binding is half-saturated. Consider `Cc1nc(N)nc(N)c1/C=C/C1(c2ccc(C(F)(F)F)cc2)CC1` [C1], for which the Kd was 28.1 ± 18.4 nM.

These data come from publication PMC10435995 (Life Science Alliance, 2023).
